Tested on: AGS and MKN45 gastric cancer cell lines
Assay: MTS-based cell proliferation assay after siRNA transfection (drug dose-response)
Conditions: CTBP1 siRNA (5 nM) vs untreated cells (WT) and control siRNA, 72 h drug incubation
Procedure: MKN45 cell lines were grown in RPM1-1640 media and AGS cell lines in F12K, both media were supplemented with 10% characterized fetal bovine serum (FBS) (Hyclone, Logan, Utah, USA) and 100 U /ml of Penicillin /Streptomycin (Gibco BRL, Gaithersburgh, Md., USA). Cells were grown in an incubator (NUAIRE, Plymouth, USA) at 37° C. with an atmosphere of 5% CO2 and 90% humidity. The drugs 5-FU, Cisplatin and Epirubicin were donated for this research by the Kampar Oncology Laboratory (Santiago, Chile).
In 6-well plates, 200,000 cells were cultured in their respective culture medium with 10% FBS for 24 h at 37° C. and 5% CO2 pressure. Then cells were washed once with PBS IX and 900 ul of their respective medium without serum and without antibiotic were added.
The cells were transfected with a pool of 4 siRNA Flexitube siRNA CTBP1 and siRNA control AllStars Negative Control (QIAGEN, Valencia, Calif., USA) at a concentration of 5 nM with 2.5 ul of Lipofectamine 2000 (Invitrogen, Carlsbad, Calif., USA). […]
24 hours after transfection, cells were seeded in 96 well plates at a concentration of 10,000 cells per well. […] The IC50 values were calculated using GraphPad 5.0 software. The results of the response to the drugs were expressed as mean±SD. […]

For `O=c1[nH]cc(F)c(=O)[nH]1` [5-FU, 5-Fluorouracil], the “increase in sensitivity to the drug on silencing of CTBP1 with siRNA” value was “approximately 6 times”.
In the case of `COc1cccc2c1C(=O)c1c(O)c3c(c(O)c1C2=O)C[C@@](O)(C(=O)CO)C[C@@H]3O[C@H]1C[C@H](N)[C@@H](O)[C@H](C)O1` [Epirubicin], the “increase in sensitivity to the drug on silencing of CTBP1 with siRNA” value is reported as 12-17 times.
